Patent US7902190B2, “Indol derivatives, the method for preparing thereof and composition for the prevention and treatment of metabolic disorder containing the same as an active ingredient” (Korea Research Institute of Bioscience and Biotechnology, priority 2006, dated 2011)
Entries after “also recorded” stand apart in the source; their conditions may differ.

Legend:
DGAT [1] = assay: Assay for inhibitory activity against DGAT ([14C]triacylglycerol formation, rat microsomal protein as enzyme source); type: biochemical; details: for DGAT (inhibition % in 5 μM) / DGAT (inhibition % in 25 μM): rat microsomal protein as enzyme source; for inhibitory activity against DGAT (in words): rat hepatic microsomal protein, 1,2-diacylglycerol and [14C]palmitoyl-CoA as substrates
Description: The following experiment was performed in order to examine the inhibitory activity of the indole derivatives of the present invention against DGAT. After enzymatic reaction between two substrates, 1,2-diacylglycerol (Sigma, D0138) and [^14C]palmitoyl-CoA (Amersham, CFA583), with the microsomal protein of rats serving as an enzyme source in accordance with Coleman et al, Methods Enzymol., 98-103, 1992, the resulting product [^14C] triacylglycerol was measured for radioactivity.
In detail, to a reaction buffer (175 mM Tris-HCl, pH 8.0, 20 μl bovine serum albumin (10 mg/ml), 100 mM MgCl2, 30 μM [^14C] palmitoyl-CoA (0.02 μCi, Amersham) and 200 μM 1,2-dioleoyl glycerol) was added 10 μl of a solution of the samples in dimethylsulfoxide (DMSO) and then 100-200 μl of an isolated microsomal protein, followed by reaction at 25° C. for 10 min. The reaction was terminated with 1.5 ml of a mixture of 80:20:2 2-propanol:heptane:water (v:v:v). Thereafter, the [^14C] triacylglycerol thus formed was separated. In this regard, 1 ml of heptane and 0.5 ml of distilled water were added to the reaction mixture, which was then shaken. 1 ml of the supernatant thus formed was mixed with 2 ml of an alkaline ethanol solution (ethanol:0.5 N sodium hydroxide:water=50:10:40, v:v:v), followed by shaking. After it was recovered, 0.65 ml of the supernatant thus formed was measured for radioactivity using an LSC (liquid scintillation counter). The inhibitory activity against DGAT was calculated according to the following Mathematical Formula 1.
T: Cpm of a test group in which a sample was added to an enzymatic buffer,
C: Cpm of a control in which no samples were added to an enzymatic buffer,
B: Cpm of a control in which a sample was added in the absence of any enzyme source.

SPF ICR mice = assay: Single-dose oral acute toxicity, SPF ICR mice; type: in vivo, mouse
Description: In addition, the compounds of the present invention were orally administered once at a dose of as high as 2,000 mg/kg into mice. In this regard, 7-week-old male SPF ICR mice (Dae Han Biolink Co. Ltd.) were acclimated to a new environment for one week and then, at 8 weeks of age, were divided into two groups of three. The test group was orally administered once with a dose of 2 g/kg of Compound 10 in a 0.5% CMC solution, while the control was administered with a 0.5% CMC (carboxymethyl cellulose) solution alone. They were monitored for death, clinical signs, change in body weight and the like for a couple of weeks. Autopsies were performed to examine the abnormality of organs.

DGAT [2] = assay: Assay for inhibitory effect on DGAT in cell (triglyceride production from [14C]acetate in HepG2 cells); type: cell-based, human; details: 10 μM; for Production Yield of Triglyceride (%): DMSO control taken as 100
Description: The effect of the indole derivatives of the present invention on DGAT was examined with HepG2 cells, hepatic cells derived from the human liver, as follows.
HepG2 cells, purchased from ATCC, were cultured in MEM (Minimum Essential Medium, 2 mM L-glutamine, Earle's BSS adjusted to contain 1.5 g/L sodium bicarbonate, 0.1 mM nonessential amino acids, and 1 mM sodium pyruvate), supplemented with 10% fetal bovine serum (FBS) and 1% antibiotics (100 U/ml penicillin and 100 µg/ml streptomycin) at 37° C. in a 5% CO2 incubator.
Intracellular DGAT activity was represented by the amount of triglycerides produced in the cultured HepG2 cells while the compounds (1, 6, 10, 11 and 15) of Chemical Formula 1 were assayed for inhibitory activity against DGAT by measuring the change in intracellular triglyceride production after the addition thereof.
Cells were plated at a density of 1×10^6 cell/ml per well into 24-well plates and incubated for 24 hours. Then, the medium was exchanged with FBS-free MEM. Thereafter, 0.2 mCi of [^14C]acetate (Amersham) was added as a substrate to the cells, followed by incubation for 18 hours. The production of triglycerides was catalyzed by DGAT so that DGAT activity was determined by the amount of the triglyceride product, which could be measured using radioactivity. For use, the samples were dissolved in dimethyl sulfoxide (DMSO). In a control, triglycerides were synthesized using DMSO without any sample, with the production yield thereof taken as 100.
The amount of the triglyceride products synthesized was determined as follows. […] 1 ml of the extract was concentrated with nitrogen gas. The total lipid residue thus formed was dissolved in an organic solvent mixture (chloroform:methanol=2:1) and loaded dropwise onto a thin layer chromatography plate (TLC; silica gel 60F254, 0.5 mm, Merck) using a mixture of 80:20:1 hexane:diethylether:acetic acid (v:v:v) as a developing solvent. After the separation of triglycerides (Rf value: 0.4) on TLC, the plate was brought into contact with an autoradiographic film for three hours, followed by image analysis (BAS-1500, Fuji Photo Film Co. Ltd.) to determine the [^14C] radioactivity of the triglycerides. The cells left after the extraction were suspended in 0.3 ml of a 0.1 N sodium hydroxide solution to measure the cellular protein concentration thereof.
The empirical values were obtained by dividing triglyceride radioactivity by protein level, with correction for experimental errors between test groups.

Row | SMILES | DGAT (inhibition % in 5 μM) (DGAT [1]) [%] | DGAT (inhibition % in 25 μM) (DGAT [1]) [%] | biosynthesis of triglyceride in comparison with the control (in words) (DGAT [2]) | Production Yield of Triglyceride (%) (DGAT [2]) | other results
1 | CC(C)(C)OC(=O)Cn1cc(/C=C/C(=O)Nc2cccc(C(=O)NCc3ccco3)c2)c2ccccc21 [Compound 13, [3-(2-{3-[(Furan-2-ylmethyl)-carbamoyl]-phenylcarbamoyl}-vinyl)-indol-1-yl]-acetic acid-t-butyl Ester] | −0.95 | 53.15 |  |  | 
2 | CC(C)(C)OC(=O)n1cc(/C=C/C(=O)Nc2cccc(C(=O)NCc3ccco3)c2)c2ccccc21 [Compound 10, 3-(2-3-[(Furan-2-ylMethyl)-Carbamoyl]-Phenylcarbamoyl-Vinyl)-Indole-1-Carboxylic Acid-t-Butyl Ester] | 60.22 | 78.68 | produced smaller amounts of triglycerides than did the control; also recorded: highly inhibit the biosynthesis of triglyceride | 49.2 ± 5.7 | inhibitory activity against DGAT (in words) (DGAT [1]): potent inhibitory activity against DGAT in a dose-dependent manner; oral acute toxicity (in words) (SPF ICR mice; administered once at a dose of up to 2,000 mg/kg): no oral acute toxicity; Mortality (No. of Dead/No of Tested) (SPF ICR mice; single oral dose 2 g/kg in 0.5% CMC, monitored two weeks): 0/3; Body Weight (g) Day 0 (SPF ICR mice; single oral dose 2 g/kg, Day 0, Mean ± SD): 36 ± 0.5 g; Body Weight (g) Day 1 (SPF ICR mice; single oral dose 2 g/kg, Day 1, Mean ± SD): 38 ± 1.0 g; Body Weight (g) Day 3 (SPF ICR mice; single oral dose 2 g/kg, Day 3, Mean ± SD): 38 ± 0.2 g; Body Weight (g) Day 7 (SPF ICR mice; single oral dose 2 g/kg, Day 7, Mean ± SD): 39 ± 1.2 g; Body Weight (g) Day 14 (SPF ICR mice; single oral dose 2 g/kg, Day 14, Mean ± SD): 42 ± 2.0 g; inhibition of the biosynthesis of triglycerides (DGAT [2]): 50.8%
3 | CC(=O)n1cc(/C=C/C(=O)Nc2cccc(C(=O)NCc3ccco3)c2)c2ccccc21 [Compound 16, 3-[3-(1-Acetyl-1H-indol-3-yl)-acryloylamino]-N-furan-2-ylmethyl-benzamide] | −10.09 | 39.82 |  |  | 
4 | O=C(CCc1c[nH]c2ccccc12)Nc1cccc(C(=O)O)c1 [Compound 5, 3-(3-1H-indol-3-yl-propionylamino)-benzoic Acid] |  | 0.08 |  |  | 
5 | NC(=O)c1cccc(NC(=O)/C=C/c2c[nH]c3ccccc23)c1 [Compound 2, 3-(3-1H-indol-3-yl-acryloylamino)-benzamide] |  | 19.36 |  |  | 
6 | O=C(/C=C/c1cn(S(=O)(=O)c2cccs2)c2ccccc12)Nc1cccc(C(=O)NCc2ccco2)c1 [Compound 15, N-furan-2-ylmethyl-3-[3-[1-(thiophene-2-sulfonyl)-1H-indol-3-yl]-acryloylamino]-benzamide] | 40.88 | 49.88 | produced smaller amounts of triglycerides than did the control; also recorded: highly inhibit the biosynthesis of triglyceride | 61.5 ± 7.1 | inhibitory activity against DGAT (in words) (DGAT [1]): potent inhibitory activity against DGAT in a dose-dependent manner; inhibition of the biosynthesis of triglycerides (DGAT [2]): 38.5%
7 | O=C(/C=C/c1cn(Cc2ccccc2)c2ccccc12)Nc1cccc(C(=O)NCc2ccco2)c1 [Compound 11, 3-[3-(1-Benzyl-1H-indol-3-yl)-acryloylamino]-N-furan-2-ylmethyl-benzamide] | 54.09 | 64.13 | produced smaller amounts of triglycerides than did the control; also recorded: highly inhibit the biosynthesis of triglyceride | 55.5 ± 7.2 | inhibitory activity against DGAT (in words) (DGAT [1]): potent inhibitory activity against DGAT in a dose-dependent manner; inhibition of the biosynthesis of triglycerides (DGAT [2]): 44.5%
8 | CN(C)CCn1cc(/C=C/C(=O)Nc2cccc(C(=O)NCc3ccco3)c2)c2ccccc21 [Compound 12, 3-{3[1-(2-Dimethylamino-ethyl)-1H-indol-3-yl]-acryloylamino}-N-furan-2-ylmethyl-benzamide] | −11.04 | −0.38 |  |  | 
9 | O=C(/C=C/c1c[nH]c2ccccc12)Nc1cccc(C(=O)NCCN2CCCCC2)c1 [Compound 7, 3-(3-1H-indol-3-yl-acryloylamino)-N-(2-piperidin-1-yl-ethyl)-benzamide] | −5.29 | −3.11 |  |  | 
10 | O=C(/C=C/c1cn(S(=O)(=O)Cc2ccccc2)c2ccccc12)Nc1cccc(C(=O)NCc2ccco2)c1 [Compound 14] | 43.19 | 50.89 |  |  | inhibitory activity against DGAT (in words) (DGAT [1]): potent inhibitory activity against DGAT in a dose-dependent manner
11 | O=C(/C=C/c1c[nH]c2ccccc12)Nc1cccc(C(=O)NCCCN2CCOCC2)c1 [Compound 8, 3-(3-1H-indol-3-yl-acryloylamino)-N-(3-morpholin-4-yl-propyl)-benzamide] | 3.06 | 2.05 |  |  | 
12 | O=C(/C=C/c1c[nH]c2ccccc12)Nc1cccc(C(=O)NCc2ccco2)c1 [Compound 9, N-furan-2-ylmethyl-3-(3-1H-indol-3-yl-acryloylamino)-benzamide] | 2.72 | 13.24 |  |  | 
13 | COC(=O)c1cccc(NC(=O)/C=C/c2c[nH]c3ccccc23)c1 [Compound 4, 3-(3-1H-indol-3-yl-acryloylamino)-benzoic Acid Methyl Ester] |  | 18.72 |  |  | 
14 | O=C(/C=C/c1c[nH]c2ccccc12)Nc1cccc(C(=O)O)c1 [Compound 6, 3-(3-1H-indol-3-yl-acryloylamino)-benzoic Acid] |  | 11.52 | produced smaller amounts of triglycerides than did the control | 92.5 ± 6.7 | 
15 | NC(=O)c1cccc(NC(=O)CCc2c[nH]c3ccccc23)c1 [Compound 1, 3-(3-1H-indol-3-yl-propionylamino)-benzamide] |  | 4.66 | produced smaller amounts of triglycerides than did the control | 95.5 ± 5.7 | 
